Legend:
[1] = test system: NF-κB; assay: NF-κB activation assay: camptothecin induced NF-κB nuclear binding; format: cell-based; settings: camptothecin 10 μM to 10 nM
Protocol: Treatment of the nuclear extract with the p65 antibody results in a significant decrease in NF-κB/DNA binding. As a negative control, cells are left inactivated and nuclear extracts are treated with the NF-κB consensus sequence, illustrating only a slight background level of NT-κB.
Inhibition of camptothecin mediated activation of NF-κB by the agents disclosed herein is as follows: Induction of NF-κB activation can proceed via a wide range of signaling pathways (Delhase et al., Science 284: 309-313 (1999); Karin, Oncogene 18: 6867-6874 (1999)). Inhibition of NF-κB activation can proceed via the inhibition of many different pathways (Epinat and Gilmore, Oncogene 18: 6896-6909 (1999)). […]
Human Jurkat leukemia T-cells (clone E6-1; Amer. Type Culture Collection, Rockville, Md.) are grown in RPMI-1640 Media (Gibco-BRL, Rockville, Md.) supplemented with 10% fetal bovine serum, penicillin (614 ng/mL), streptomycin (10 μg/mL) and HEPES buffer, pH 7.2 at 37° C., 5% CO2. […] The protein concentration of the extracts is determined according to the Method of Bradford (1976) with BioRad reagents. […] After electrophoresis the gel is analyzed using a phosphorimager (Biorad FX plus) for detection of the NF-κB-DNA binding.

[2] = test system: TNFα; assay: Inhibition of LPS/IFNγ-induced cytokine expression (TNFα); format: cell-based
[3] = test system: RANTES; assay: Inhibition of LPS/IFNγ-induced cytokine expression (RANTES); format: cell-based
[4] = test system: NF-κB; assay: Modulation of NF-κB activity compared with steroid (FIG. 17); format: cell-based; settings: FIG. 17A/17B
[5] = test system: NF-κB-regulated cytokines; assay: Secretion of NF-κB-regulated cytokines by mouse macrophages (FIG. 18B); format: cell-based
[6] = test system: imiquimod-induced dermal inflammation; assay: Imiquimod-induced psoriasis-like skin inflammation model in mice; settings: topically applied, in vivo, mice (FIG. 15)
Protocol: Psoriasis is induced by imiquimod applied to the back and ears of the test animals. The initial signs of the disease are observed within 5-6 days as redness and the appearance of plaque type psoriasis, and the disease progresses onto the entire back of the animal.
The study is carried out on female BALC/c mice, 9-10 weeks old at study initiation. […] The animals are divided into group 1 (naïve), group 2 (vehicle+IMQ), group 3 (C15 peptide test agent+IMQ) and group 4 (C15 peptide test agent+IMQ).
The animals are examined for signs of psoriasis on study day 1. These scores served as a baseline for the psoriasis clinical score parameter. Starting from IMQ cream application on day 1, psoriasis responses are examined from day 5 until termination of the study.
Psoriasis reactions (erythema and plaques) are scored and recorded. For plaques, a scale of 0-7 is used with 0 being normal and 7 being no fur with small red dots covering 50%-100% of the back. For erythema, a scale of 0-4 is used with 0 being normal and 4 being very marked. The clinical score is determined by summing the score of each section. The final psoriasis score is the sum of the erythema score and the plaques score.
Right ear thickness is measured before psoriasis induction on study day 1 (baseline). […] Right ear thickness is then measured on study days 5, 8 and 10 (study termination). […]

[7] = test system: RANTES; assay: Newly synthesized RANTES in human macrophages (FIG. 18C); format: cell-based

CC[C@@]1(O)C(=O)OCc2c1cc1n(c2=O)Cc2cc3ccccc3nc2-1 [camptothecin]
NF-κB/DNA binding due to NF-κB activation [1]: significant amount of NF-κB/DNA binding

NNNNNNNNNN
Percent Inhibition of LPS/IFNγ-induced Cytokine Expression [2]: 1% | Percent Inhibition of LPS/IFNγ-induced Cytokine Expression [3]: 0%

AGEDPHSFYFPGQFA (listed as Homo sapiens) [human C15 peptide]
NF-κB activity modulation relative to steroid [4]: modulates NF-κB activity more potently than steroid | secretion of NF-κB-regulated cytokines [5]: reduced | imiquimod-induced dermal inflammation [6]: reduces imiquimod-induced dermal inflammation in vivo in a dose dependent manner | reduction of newly synthesized RANTES ([7]; human macrophages (FIG. 18C)): > 90% | potency relative to steroid (Dex) ([7]; human macrophages, RANTES (FIG. 18C)): 10^6 time
